Data set [1] concerns the target T1, Cysteinyl leukotriene receptor 1 (Homo sapiens, UniProt Q9Y271). Note: in other assays of this panel Not Active means under 50% inhibition at 10 µM.
T1 sequence (Q9Y271 whole entry): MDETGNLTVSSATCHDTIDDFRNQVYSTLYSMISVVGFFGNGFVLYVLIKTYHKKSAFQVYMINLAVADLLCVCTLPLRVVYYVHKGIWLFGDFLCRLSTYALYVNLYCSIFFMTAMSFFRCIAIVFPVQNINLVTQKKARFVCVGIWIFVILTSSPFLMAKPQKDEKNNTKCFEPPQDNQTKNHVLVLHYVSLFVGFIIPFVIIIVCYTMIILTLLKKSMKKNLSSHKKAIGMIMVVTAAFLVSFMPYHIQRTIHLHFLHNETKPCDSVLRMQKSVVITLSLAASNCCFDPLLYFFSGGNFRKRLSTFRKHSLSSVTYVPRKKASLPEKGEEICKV
The data set is classed as cell membranes, CHO-K1, Membrane.

Data set [2] has as its target T2, Alpha-1D adrenergic receptor (Homo sapiens, UniProt P25100). Note: in other assays of this panel Not Active means under 50% inhibition at 10 µM.
T2 sequence (P25100 whole entry): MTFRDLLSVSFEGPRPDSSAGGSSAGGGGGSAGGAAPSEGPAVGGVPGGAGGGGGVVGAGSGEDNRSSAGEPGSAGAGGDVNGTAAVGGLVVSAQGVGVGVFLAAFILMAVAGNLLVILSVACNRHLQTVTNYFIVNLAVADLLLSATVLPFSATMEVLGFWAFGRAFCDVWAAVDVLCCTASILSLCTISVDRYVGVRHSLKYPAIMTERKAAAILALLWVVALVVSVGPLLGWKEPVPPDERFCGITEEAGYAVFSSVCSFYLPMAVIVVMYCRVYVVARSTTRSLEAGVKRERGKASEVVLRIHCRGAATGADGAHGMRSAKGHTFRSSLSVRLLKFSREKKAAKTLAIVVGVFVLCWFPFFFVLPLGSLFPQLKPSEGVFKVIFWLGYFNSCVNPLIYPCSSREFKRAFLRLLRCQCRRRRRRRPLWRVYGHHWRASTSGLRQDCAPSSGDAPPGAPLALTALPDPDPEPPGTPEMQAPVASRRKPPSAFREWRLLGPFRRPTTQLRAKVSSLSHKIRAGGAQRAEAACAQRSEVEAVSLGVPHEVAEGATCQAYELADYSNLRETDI
The data set is classed as cell membranes, HEK293, Membrane. Conditions: hek293.

Another data set deals with T3, Neutrophil elastase (Homo sapiens, UniProt P08246).
T3 sequence (P08246 whole entry): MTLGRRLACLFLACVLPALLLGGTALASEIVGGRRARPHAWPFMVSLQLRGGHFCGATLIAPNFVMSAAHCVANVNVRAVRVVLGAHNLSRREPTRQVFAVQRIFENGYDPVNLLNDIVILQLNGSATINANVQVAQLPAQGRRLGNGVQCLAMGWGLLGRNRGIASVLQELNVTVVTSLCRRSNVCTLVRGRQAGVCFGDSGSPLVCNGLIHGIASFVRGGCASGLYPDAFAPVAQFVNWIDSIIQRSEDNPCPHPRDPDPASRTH
The data set is classed as tissue-based.

Data set [3] concerns the target Tyrosine-protein kinase Lck (Homo sapiens, UniProt P06239). The data set is described as follows: DRUGMATRIX: Protein Tyrosine Kinase, LCK enzyme inhibition (substrate: Poly(Glu:Tyr)). The data set is classed as cell-based, Insect cells. Conditions: insect cells; Not Active = under 50% inhibition at 10 µM.
A further data set addresses Cytochrome P450 2E1 (Homo sapiens, UniProt P05181). Conditions: bti-tn-5b1-4.
The nature of data set [4]: DRUGMATRIX: ATPase, Na+/K+ enzyme inhibition (substrate: ATP). The data set is classed as tissue-based, Sus scrofa, Heart. The following applies: Not Active = under 50% inhibition at 10 µM.
The target in data set [5] is T4, Amine oxidase [flavin-containing] A (Homo sapiens, UniProt P21397).
T4 sequence (P21397 whole entry): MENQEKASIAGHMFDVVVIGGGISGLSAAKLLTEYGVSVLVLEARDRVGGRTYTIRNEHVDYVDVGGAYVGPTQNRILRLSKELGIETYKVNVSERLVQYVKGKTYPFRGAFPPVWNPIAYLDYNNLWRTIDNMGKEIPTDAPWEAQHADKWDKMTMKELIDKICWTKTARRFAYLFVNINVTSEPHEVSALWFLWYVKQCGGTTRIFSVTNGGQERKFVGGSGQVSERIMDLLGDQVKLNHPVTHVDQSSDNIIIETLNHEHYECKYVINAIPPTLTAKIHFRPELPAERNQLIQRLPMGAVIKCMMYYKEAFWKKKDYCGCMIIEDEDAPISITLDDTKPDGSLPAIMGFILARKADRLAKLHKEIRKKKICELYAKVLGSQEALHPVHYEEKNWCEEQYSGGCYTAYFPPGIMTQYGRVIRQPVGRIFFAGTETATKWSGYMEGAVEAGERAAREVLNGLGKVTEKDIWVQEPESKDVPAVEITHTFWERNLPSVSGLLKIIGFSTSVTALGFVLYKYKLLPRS
The data set is described as follows: DRUGMATRIX: Monoamine Oxidase MAO-A enzyme inhibition (substrate: Kynuramine). More on the design: species or system BTI-TN-5B1-4. The following applies: bti-tn-5b1-4; Not Active = under 50% inhibition at 10 µM.

Chain of Tyrosine-protein kinase Lck (P06239 whole entry): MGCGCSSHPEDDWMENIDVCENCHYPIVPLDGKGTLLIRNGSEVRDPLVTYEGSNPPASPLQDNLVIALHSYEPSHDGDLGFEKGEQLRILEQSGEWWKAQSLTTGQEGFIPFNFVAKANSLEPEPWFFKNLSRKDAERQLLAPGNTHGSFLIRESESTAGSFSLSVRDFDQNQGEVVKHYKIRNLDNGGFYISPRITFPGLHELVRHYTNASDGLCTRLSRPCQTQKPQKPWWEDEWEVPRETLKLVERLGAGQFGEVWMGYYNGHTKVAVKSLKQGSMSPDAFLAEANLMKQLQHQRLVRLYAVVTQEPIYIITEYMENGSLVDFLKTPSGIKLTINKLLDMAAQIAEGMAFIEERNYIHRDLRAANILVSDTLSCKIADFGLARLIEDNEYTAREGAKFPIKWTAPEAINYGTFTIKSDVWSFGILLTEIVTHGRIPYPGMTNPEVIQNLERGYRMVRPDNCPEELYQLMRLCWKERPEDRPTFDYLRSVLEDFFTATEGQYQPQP
Chain of Cytochrome P450 2E1 (P05181 whole entry): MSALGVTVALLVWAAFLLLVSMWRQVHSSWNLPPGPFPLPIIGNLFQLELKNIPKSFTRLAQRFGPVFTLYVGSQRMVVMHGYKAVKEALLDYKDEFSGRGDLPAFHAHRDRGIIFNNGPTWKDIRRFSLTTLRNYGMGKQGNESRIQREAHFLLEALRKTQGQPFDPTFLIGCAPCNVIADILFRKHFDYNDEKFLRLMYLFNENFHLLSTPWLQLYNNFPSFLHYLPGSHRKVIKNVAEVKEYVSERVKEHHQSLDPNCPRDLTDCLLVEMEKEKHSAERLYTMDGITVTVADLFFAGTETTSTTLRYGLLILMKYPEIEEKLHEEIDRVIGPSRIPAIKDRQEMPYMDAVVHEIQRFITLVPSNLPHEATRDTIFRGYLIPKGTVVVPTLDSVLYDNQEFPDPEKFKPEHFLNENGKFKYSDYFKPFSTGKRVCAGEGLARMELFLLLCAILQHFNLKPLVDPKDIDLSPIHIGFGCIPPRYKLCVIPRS

As a reminder, the IC50 is the concentration at which inhibition is half-maximal. As a reminder, the Ki is a measure of affinity in units of concentration, obtained from inhibition or displacement. For the compound `O=C1CN(/N=C/c2ccc([N+](=O)[O-])o2)C(=O)N1` [NITROFURANTOIN], the IC50 result (in data set [1] (cho-k1); in data set [2]; on Neutrophil elastase; in data set [3]; on Cytochrome P450 2E1; in data set [4]) was “Not Active” each time. For the same compound, in data set [5], the IC50 result was “Not Active”. The Ki result (on Cytochrome P450 2E1; in data set [4]) was “Not Active” in each case.
With `Cc1c(N)nc([C@H](CC(N)=O)NC[C@H](N)C(N)=O)nc1C(=O)N[C@H](C(=O)N[C@H](C)[C@@H](O)[C@H](C)C(=O)N[C@H](C(=O)NCCc1nc(-c2nc(C(=O)NCCC[S+](C)C)cs2)cs1)[C@@H](C)O)[C@@H](O[C@@H]1O[C@@H](CO)[C@@H](O)[C@H](O)[C@@H]1O[C@H]1O[C@H](CO)[C@@H](O)[C@H](OC(N)=O)[C@@H]1O)c1c[nH]cn1.[Br-]` [BLEOMYCIN A2], the 50% inhibitory concentration (IC50) result (in data set [1] (cho-k1); in data set [2]; against Neutrophil elastase; in data set [3]; at Cytochrome P450 2E1; in data set [4]) was “Not Active” each time. Also, in data set [5], the IC50 result is reported as “Not Active”. In addition, the inhibitory constant (Ki) entry (at Cytochrome P450 2E1; in data set [4]) was “Not Active” each time.
In the case of `CC(C)Cc1ccc([C@H](C)C(=O)O)cc1` [DEXIBUPROFEN], the IC50 result (in data set [1] (cho-k1); in data set [2]; on Neutrophil elastase; in data set [3]; on Cytochrome P450 2E1; in data set [4]) was “Not Active” in each case. Also, the half-inhibitory concentration (IC50) result in data set [5] is on record as “Not Active”. Besides, the Ki result (on Cytochrome P450 2E1; in data set [4]) was “Not Active” each time.
`NS(=O)(=O)c1cc(C(=O)O)c(NCc2ccco2)cc1Cl` [FUROSEMIDE]: the 50% inhibitory concentration (IC50) entry (in data set [1] (cho-k1); in data set [2]; against Neutrophil elastase; in data set [3]; against Cytochrome P450 2E1; in data set [4]) was “Not Active” throughout. In addition, the IC50 entry in data set [5] is given as “Not Active”. In addition, the inhibitory constant (Ki) result (on Cytochrome P450 2E1; in data set [4]) was “Not Active” in each case.
As for `C[C@H]1C[C@H]2[C@@H]3CCC4=CC(=O)C=C[C@]4(C)[C@@]3(F)[C@@H](O)C[C@]2(C)[C@@]1(O)C(=O)CO` [BETAMETHASONE], the IC50 result (in data set [1] (cho-k1); in data set [2]; against Neutrophil elastase; in data set [3]; against Cytochrome P450 2E1; in data set [4]) was “Not Active” in each case. Also, the IC50 result in data set [5] is listed as “Not Active”. The inhibitory constant (Ki) entry (at Cytochrome P450 2E1; in data set [4]) was “Not Active” in each case.
For the compound `COC(=O)C[C@](O)(CCC(C)(C)O)C(=O)O[C@@H]1C(OC)=C[C@]23CCCN2CCc2cc4c(cc2[C@H]13)OCO4` [HARRINGTONINE], the IC50 result (in data set [1] (cho-k1); in data set [2]; on Neutrophil elastase; in data set [3]; at Cytochrome P450 2E1; in data set [4]) was “Not Active” throughout. For the same compound, the half-inhibitory concentration (IC50) result in data set [5] is “Not Active”. Moreover, the inhibition constant Ki result (at Cytochrome P450 2E1; in data set [4]) was “Not Active” in each case.
Consider `CC(C)(c1ccc(O)cc1)c1ccc(O)cc1` [BISPHENOL A], for which the IC50 entry (in data set [1] (cho-k1); in data set [2]; on Neutrophil elastase; in data set [3]; on Cytochrome P450 2E1; in data set [4]) was “Not Active” in each case. Also, in data set [5], the IC50 result was “Not Active”. Further, the inhibition constant Ki entry (on Cytochrome P450 2E1; in data set [4]) was “Not Active” in each case.
As for `CCN1CCN(C(=O)N[C@@H](C(=O)N[C@@H]2C(=O)N3[C@@H]2SC(C)(C)[C@@H]3C(=O)O)c2ccccc2)C(=O)C1=O` [PIPERACILLIN], the half-maximal inhibitory concentration (IC50) result (in data set [1] (cho-k1); in data set [2]; on Neutrophil elastase; in data set [3]; on Cytochrome P450 2E1; in data set [4]) was “Not Active” throughout. The 50% inhibitory concentration (IC50) result in data set [5] was “Not Active”. Besides, the Ki result (on Cytochrome P450 2E1; in data set [4]) was “Not Active” in each case.
For `CC[C@H]1OC(=O)[C@H](C)[C@@H](O[C@H]2C[C@@](C)(OC)[C@@H](O)[C@H](C)O2)[C@H](C)[C@@H](O[C@@H]2O[C@H](C)C[C@H](N(C)C)[C@H]2O)[C@](C)(O)C[C@@H](C)C(=O)[C@H](C)[C@@H](O)[C@]1(C)O` [ERYTHROMYCIN], the IC50 entry (in data set [1] (cho-k1); in data set [2]; against Neutrophil elastase; in data set [3]; against Cytochrome P450 2E1; in data set [4]) was “Not Active” throughout. For the same compound, the half-inhibitory concentration (IC50) result in data set [5] was “Not Active”. The Ki entry (on Cytochrome P450 2E1; in data set [4]) was “Not Active” each time.
For the compound `NC(N)=Nc1nc(CSCCC(N)=NS(N)(=O)=O)cs1` [FAMOTIDINE], the IC50 entry (in data set [1] (cho-k1); in data set [2]; against Neutrophil elastase; in data set [3]; at Cytochrome P450 2E1; in data set [4]) was “Not Active” each time. For the same compound, the IC50 entry in data set [5] is “Not Active”. In addition, the inhibition constant Ki entry (on Cytochrome P450 2E1; in data set [4]) was “Not Active” each time.
On to `CN(CCOc1ccc(C[C@H](Nc2ccccc2C(=O)c2ccccc2)C(=O)O)cc1)c1ccccn1`, for which the half-maximal inhibitory concentration (IC50) in data set [1] (read-out: IC50) is 10.9 µM; in data set [2], “Not Active”; at Neutrophil elastase, “Not Active”; in data set [3], “Not Active”; against Cytochrome P450 2E1, “Not Active”; in data set [4], “Not Active”. Besides, in data set [5], the half-inhibitory concentration (IC50) entry was “Not Active”. Also, the Ki was 5.45 µM in data set [1] (read-out: Ki), “Not Active” at Cytochrome P450 2E1 and “Not Active” in data set [4].
As for `COc1cc(NC(C)CCCN)c2ncccc2c1` (configuration not stated) [PRIMAQUINE], the IC50 entry (in data set [1] (cho-k1); in data set [2]; at Neutrophil elastase; in data set [3]; on Cytochrome P450 2E1; in data set [4]) was “Not Active” throughout. In addition, the IC50 entry in data set [5] was “Not Active”. The Ki result (at Cytochrome P450 2E1; in data set [4]) was “Not Active” in each case.
As to `c1ccc2sc(SSc3nc4ccccc4s3)nc2c1` [BENZOTHIAZYL DISULFIDE], the concentration for half-maximal inhibition (IC50) result (in data set [1] (cho-k1); in data set [2]; at Neutrophil elastase; in data set [3]; against Cytochrome P450 2E1; in data set [4]) was “Not Active” throughout. Also, the concentration for half-maximal inhibition (IC50) result in data set [5] was “Not Active”. The Ki result (at Cytochrome P450 2E1; in data set [4]) was “Not Active” each time.
Consider `CC(C)(C#N)c1cc(Cn2cncn2)cc(C(C)(C)C#N)c1` [ANASTROZOLE], for which the IC50 entry (in data set [1] (cho-k1); in data set [2]; at Neutrophil elastase; in data set [3]; at Cytochrome P450 2E1; in data set [4]) was “Not Active” each time. In addition, the IC50 entry in data set [5] is recorded as “Not Active”. Moreover, the Ki entry (on Cytochrome P450 2E1; in data set [4]) was “Not Active” in each case.

The values above are taken from ChEMBL document CHEMBL1909046, “DrugMatrix in vitro pharmacology data”.
